The test concerns the target Mitochondrial complex I; NADH oxidoreductase (Bos taurus, UniProt P25708+P52505). The test can be described thus: Inhibition of bovine mitochondrial NADH-ubiquinone oxidoreductase by NADH oxidase assay. The format is protein-complex assay.
Mitochondrial complex I; NADH oxidoreductase, sequence (P25708 21-464 limits assumed, other chains not shown): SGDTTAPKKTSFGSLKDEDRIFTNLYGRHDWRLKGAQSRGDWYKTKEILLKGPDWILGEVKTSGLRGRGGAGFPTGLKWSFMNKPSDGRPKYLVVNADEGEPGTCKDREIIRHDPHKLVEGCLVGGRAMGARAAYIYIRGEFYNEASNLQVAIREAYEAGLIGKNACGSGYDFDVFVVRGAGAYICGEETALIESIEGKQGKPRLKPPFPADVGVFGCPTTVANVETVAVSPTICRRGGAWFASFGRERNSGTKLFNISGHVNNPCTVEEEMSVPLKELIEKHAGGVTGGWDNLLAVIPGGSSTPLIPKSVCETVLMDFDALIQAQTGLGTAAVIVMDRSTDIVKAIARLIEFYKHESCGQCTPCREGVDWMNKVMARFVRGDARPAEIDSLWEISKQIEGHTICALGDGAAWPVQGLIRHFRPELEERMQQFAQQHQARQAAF
Compound `CCCCCCCCCC[C@@H](O)[C@H]1CC[C@H]([C@H]2CC[C@H]([C@H](O)CCCCCC)O2)O1` gave a half-maximal inhibitory concentration (IC50) of 0.0032 µM.

Compound `CCCCCCCC[C@@H](O)[C@H]1CC[C@H]([C@H]2CC[C@H]([C@H](O)CCCCCCCC)O2)O1` gave an IC50 of 0.045 µM. Under `CCCCCCCCCCCC[C@@H](O)[C@H]1CC[C@H]([C@H]2CC[C@H]([C@H](O)CCCCCCCC)O2)O1` stands 0.0075 µM; under `CCCCCCCCCCCC[C@@H](O)[C@H]1CC[C@H]([C@H]2CC[C@H]([C@H](O)CCCCCCCCCCCC)O2)O1`, 0.009 µM; under `CCCCCCCCCCCCCC[C@@H](O)[C@H]1CC[C@H]([C@H]2CC[C@H]([C@@H](C)O)O2)O1`, 0.41 µM. In the case of `CCCCC(CC)CCC[C@@H](O)[C@H]1CC[C@H]([C@H]2CC[C@H]([C@H](O)CCCC(CC)CCCC)O2)O1` (some centres not stated) it was 0.87 µM; in that of `CCCCCCCCCC[C@@H](O)[C@H]1CC[C@H]([C@H]2CC[C@H]([C@@H](C)O)O2)O1`, 0.28 µM; in that of `CCCCCCCCCCCCCC[C@@H](O)[C@H]1CC[C@H]([C@H]2CC[C@H]([C@H](O)CCCCCC)O2)O1`, 0.034 µM.

Compound `CCCCCCCCCC[C@@H](O)[C@H]1CC[C@H]([C@H]2CC[C@H]([C@H](O)CCCC(CCC)CCC)O2)O1` had a half-maximal inhibitory concentration (IC50) of 0.027 µM. With `CCCC(CCC)CCC[C@@H](O)[C@H]1CC[C@H]([C@H]2CC[C@H]([C@H](O)CCCC(CCC)CCC)O2)O1`, the IC50 was 1.5 µM. In the case of `CCCCCCCCCC[C@@H](O)[C@H]1CC[C@H]([C@H]2CC[C@H]([C@H](O)CC)O2)O1` it was 0.045 µM. In the case of `CCCCCCCCCC[C@@H](O)[C@H]1CC[C@H]([C@H]2CC[C@H]([C@H](O)CCCCCCCCCC)O2)O1` [dleta-lac-Acetogenin] it was 0.0017 µM.

For orientation: IC50 means the concentration at which inhibition is half-maximal. Read a low IC50 as greater potency.
